In patent publication US20040171680A1, “Treating Syndrome X with substituted tetralins and indanes” (priority 2002, published 2004):
Like-named read-outs stand apart in the source and are kept apart here.

Assays:
Assay type in all cases: cell-based
[1] = biological target: T1, PPARγ (Homo sapiens, UniProt P37231); experiment: aP2 Assay for PPAR gamma Agonists (bDNA aP2 mRNA in preadipocytes); settings: fold induction; PPARγ standard: FI = 70.3
T1 construct: Following the challenge of the preadipocytes, cells may be lysed with lysis buffer; endogenous in cells; host or cells: preadipocytes
T1 sequence (P37231 1-505): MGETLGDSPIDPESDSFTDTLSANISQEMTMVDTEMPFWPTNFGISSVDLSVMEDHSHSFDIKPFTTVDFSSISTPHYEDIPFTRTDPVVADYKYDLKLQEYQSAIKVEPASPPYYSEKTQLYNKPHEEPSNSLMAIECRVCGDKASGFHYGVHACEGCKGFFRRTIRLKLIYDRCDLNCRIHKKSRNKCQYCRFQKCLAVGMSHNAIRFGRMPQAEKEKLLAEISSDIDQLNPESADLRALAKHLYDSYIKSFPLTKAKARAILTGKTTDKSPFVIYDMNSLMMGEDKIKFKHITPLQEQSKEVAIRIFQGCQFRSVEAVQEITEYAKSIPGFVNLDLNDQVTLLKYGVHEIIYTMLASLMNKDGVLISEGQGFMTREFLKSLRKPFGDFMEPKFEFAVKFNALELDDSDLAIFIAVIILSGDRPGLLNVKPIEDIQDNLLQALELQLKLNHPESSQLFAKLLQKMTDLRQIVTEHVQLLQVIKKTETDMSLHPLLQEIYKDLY
Description: aP2 Assay for PPAR gamma Agonists
The procedure is described in detail in Burris et al., Molecular Endocrinology, 1999, 13:410, which is hereby incorporated by reference in its entirety, and aP2 assay results of agonist intrinsic activity may be presented as fold increase over vehicle in induction of aP2 mRNA production.
Twenty-four hours after the initial seeding of the 96-well plates by hand (around 20,000/well), the differentiation assay may be initiated. Medium may be removed and replaced with […] of differentiation medium containing vehicle (DMSO) or test compounds. Cells may be returned to incubator for 24 hours culture. At the termination of the challenge, medium may be removed and 100 ul of lysis buffer may be added to initiate the bDNA aP2 mRNA assay. The branched DNA assay may be performed according to the manufacturer's protocol (Bayer Diagnostics; Emeryville, Calif.). Result may be expressed as the fold increase of aP2 mRNA production activated over vehicle controls. EC50's and Emax may be determined by non-linear regression with a sigmoidal fit curve.
Following the challenge of the preadipocytes, cells may be lysed with lysis buffer (Bayer Diagnostics) containing the aP2 oligonucleotides. After a 15 minute incubation at 53° C. or 30 minutes at 37° C. incubator, 70 ul of the lysis buffer from each well may be added to a corresponding capture well (preincubated with 70 ul of blocking buffer (Bayer Diagnostics)). The capture plate may be incubated overnight at 53° C. in a plate incubator (Bayer Diagnostics). After this incubation, the bDNA and labeled probes may be annealed as directed by the manufacturer. Following a 30-minute incubation with the luminescent alkaline phosphatase substrate, dioxitane, the luminescence may be quantitated in a Dynex MLX microtiter plate luminometer. Oligonucleotide probes designed to anneal to the aP2 mRNA and function in the bDNA mRNA detection system are designed with ProbeDesigner software (Bayer Diagnostics). This software package analyzes a target sequence of interest with a series of algorithms in order to determine which regions of the sequence can perform as locations for capture, label, or spacer probe annealing. The sequences of the oligonucleotides are as follows: […]

[2] = biological target: T2, PPARα (Rattus norvegicus, UniProt P37230); experiment: HD bDNA Assay (HD gene induction)
T2 construct: H4IIE rat hepatoma cell line was obtained from ATCC; host or cells: H4IIE rat hepatoma cells
T2 sequence (P37230 1-468): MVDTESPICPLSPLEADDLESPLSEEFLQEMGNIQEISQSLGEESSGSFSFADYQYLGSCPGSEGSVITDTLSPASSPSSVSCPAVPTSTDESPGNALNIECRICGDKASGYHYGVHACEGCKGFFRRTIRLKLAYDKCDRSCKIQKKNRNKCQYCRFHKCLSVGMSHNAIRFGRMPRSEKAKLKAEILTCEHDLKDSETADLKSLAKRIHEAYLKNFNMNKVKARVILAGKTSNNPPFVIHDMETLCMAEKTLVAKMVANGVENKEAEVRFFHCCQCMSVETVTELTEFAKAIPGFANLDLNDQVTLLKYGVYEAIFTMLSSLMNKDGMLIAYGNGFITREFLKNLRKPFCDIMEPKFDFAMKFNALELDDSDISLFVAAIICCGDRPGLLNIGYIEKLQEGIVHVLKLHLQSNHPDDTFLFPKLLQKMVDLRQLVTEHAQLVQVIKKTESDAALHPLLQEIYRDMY
Experimental: HD bDNA Assay H4IIE rat hepatoma cell line was obtained from ATCC. Cells were cultured in 175 cm^2 tissue culture flask or seeded in 96-well plate with (high serum content, 10% fetal bovine serum and 10% calf serum) culture medium and maintained at 37° C. and 5% CO2 throughout study. Twenty-four hours after the initial seeding of the 96-well plate by hand (approximate 100,000/well), the HD gene induction assay was initiated. Media was removed and replaced with 100 ul of low serum culture media (5% charcoal/dextran treated calf serum) containing vehicle (DMSO) or test compounds or standard. Cells returned to incubator for 24 hours culture. At the termination of the challenge, 50 ul lysis buffer with HD gene specific CE, LE, BL probes was added directly into each well to initiate the bDNA HD mRNA assay. The branched DNA assay was performed according to the manufacturer's protocol (Bayer Diagnostics; Emeryville. Calif.). At the end of the assay, the luminescence was quantitated in Dynex MLX microtiter plate luminometer. EC50's were determined by non-linear regression with a sigmoidal fit utilizing Graphpad Prism.

[3] = biological target: T3, PPARδ (Homo sapiens, UniProt Q03181); experiment: Transfection Assay for PPARδ Receptors (PPAR-Gal4 / Gal4-Luciferase reporter in HEK293 cells); settings: for PPARδ FI: fold induction, PPARδ standard: FI = 36.1; for EC50: values in square brackets
T3 construct: a Gal4-Luciferase reporter is co-transfected
T3 sequence (Q03181 171-441 limits assumed): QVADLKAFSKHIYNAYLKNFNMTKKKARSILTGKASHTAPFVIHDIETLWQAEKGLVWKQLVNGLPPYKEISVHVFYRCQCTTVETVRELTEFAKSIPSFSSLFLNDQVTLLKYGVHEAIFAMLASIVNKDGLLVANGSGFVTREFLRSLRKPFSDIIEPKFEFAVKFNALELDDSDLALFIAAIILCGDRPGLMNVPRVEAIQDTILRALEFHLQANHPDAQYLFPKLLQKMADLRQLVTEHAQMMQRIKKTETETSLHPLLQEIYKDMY
Experimental: Transfection Assay for PPARδ Receptors
HEK293 cells were grown in DMEM/F-12 Media supplemented with 10% FBS and glutamine (GIBCOBRL). The cells were co-transfected with DNA for PPAR-Gal4 receptor and Gal4-Luciferase Reporter using the DMRIE-C Reagent. On the following day, the DNA-containing medium were replaced with 5% Charcoal treated FBS growth medium. After six hours, cells were seeded in 96 well plate and incubated at 37° C. in CO2 incubator overnight. Cells were challenged by test compounds and incubated for 24 hours at 37° C. in 5% CO2 incubator. Luciferase activity was assayed using the Steady-Glo Luciferase Assay Kit from Promega. DMRIE-C Reagent was purchased from GIBCO Cat. No.10459-014. OPTI-MEM I Reduced Serum Medium was purchased from GIBCO Cat. No. 31985. Steady-Glo Luciferase Assay Kit was obtained from Promega Part# E254B.

[4] = in section F, target not named there, values match the PPARα column, read-out: EC50
[5] = H4IIE rat hepatoma cells, 24 hours, read-out: PPARα EC50

| SMILES | PPARγ FI [1] | EC50 [2, 4] | EC50 [2, 5] | PPARδ FI [3] | EC50 [3] |
| --- | --- | --- | --- | --- | --- |
| CCCCCN(C(=O)Nc1ccc(-c2ccccc2)cc1)C1Cc2ccc(SC(C)(C)C(=O)O)cc2C1 (centres unmarked) [Example 12] | 11 | 183 nM | – | – | – |
| CCCCCCN(C(=O)Nc1ccc(C(C)C)cc1)C1Cc2ccc(SC(C)(C)C(=O)O)cc2C1 (centres unmarked) [Example 13] | 1.2 | 184 nM | – | – | – |
| CC(C)(Sc1ccc2c(c1)CC(N(CCCC1CCCC1)C(=O)Nc1ccc(OC(F)(F)F)cc1)C2)C(=O)O (centres unmarked) [Example 28, 2-{2-[1-(3-Cyclopentylpropyl)-3-(4-trifluoromethoxyphenyl)ureido]indan-5-ylsulfanyl}-2-methylpropionic acid] | – | – | 323 nM | 8.2 | – |
| CCCN(C(=O)Nc1ccc(OC)cc1)C1Cc2ccc(SC(C)(C)C(=O)O)cc2C1 (centres unmarked) [Example 32, 2-{2-[3-(4-Methoxyphenyl)-1-propylureido]indan-5-ylsulfanyl}-2-methylpropionic acid] | – | – | 497 nM | 1.5 | – |
| CCCN(C(=O)Nc1cc(C)cc(C)c1)C1Cc2ccc(SC(C)(C)C(=O)O)cc2C1 (centres unmarked) [Example 33, 2-{2-[3-(3,5-Dimethylphenyl)-1-propylureido]indan-5-ylsulfanyl}-2-methylpropionic acid] | – | – | 537 nM | 0.8 | – |
| CCCN(C(=O)Nc1ccc(C(F)(F)F)cc1)C1Cc2ccc(SC(C)(C)C(=O)O)cc2C1 (centres unmarked) [Example 35, 2-Methyl-2-{2-[1-propyl-3-(4-trifluoromethylphenyl)ureido]indan-5-ylsulfanyl}-propionic acid] | – | – | 772 nM | 5.6 | – |
| CC(C)(Sc1ccc2c(c1)CC(N(CCCC1CCCC1)C(=O)Nc1ccccc1)C2)C(=O)O (centres unmarked) [Example 37, 2-{2-[1-(3-Cyclopentylpropyl)-3-phenylureido]indan-5-ylsulfanyl}-2-methylpropionic acid] | – | – | 838 nM | 1.9 | – |
| CCCCCN(C(=O)Nc1ccc2ccccc2c1)C1Cc2ccc(SC(C)(C)C(=O)O)cc2C1 (centres unmarked) [Example 39, 2-Methyl-2-[2-(3-naphthalen-2-yl-1-pentylureido)indan-5-ylsulfanyl]propionic acid] | – | – | 1000 nM | 9.3 | – |
| CCCN(C(=O)Nc1ccc(OC(F)(F)F)cc1)C1CCc2ccc(SC(C)(C)C(=O)O)cc2C1 (centres unmarked) [Example 46, 2-Methyl-2-{7-[1-propyl-3-(4-trifluoromethoxyphenyl)ureido}-5,6,7,8-tetrahydronaphthalen-2-ylsulfanyl}propionic acid] | – | – | 1390 nM | 6.0 | – |
| CCN(C(=O)Nc1ccc(OC(F)(F)F)cc1)C1CCc2cc(SC(C)(C)C(=O)O)c(OC)cc2C1 (centres unmarked) [Example 47, 2-{6-[1-Ethyl-3-(4-trifluoromethoxyphenyl)ureido]-3-methoxy-5,6,7,8-tetrahydronaphthalen-2-ylsulfanyl}-2-methylpropionic acid] | – | 45 nM | – | – | > 3000 nM |
| CCN(C(=O)Nc1ccc(OC(F)(F)F)cc1)C1CCc2cc(OC(C)(C)C(=O)O)ccc2C1 (centres unmarked) [Example 48, 2-{6-[1-Ethyl-3-(4-trifluoromethoxyphenyl)ureido]-5,6,7,8-tetrahydronaphthalen-2-yloxy}-2-methylpropionic acid] | – | – | 14 nM | – | > 3000 nM |
| CCN(C(=O)Nc1ccc(OC(F)(F)F)cc1)C1CCc2cc(SC(C)(C)C(=O)O)c(Cl)cc2C1 (centres unmarked) [Example 51, 2-{6-[1-Ethyl-3-(4-trifluoromethoxyphenyl)ureido]-3-chloro-5,6,7,8-tetrahydronaphthalen-2-ylsulfanyl}-2-methylpropionic acid] | – | 27 nM | – | – | > 10000 nM |
| CCN(C(=O)Nc1ccc(OC(F)(F)F)cc1)C1CCc2cc(SC(C)(C)C(=O)O)c(Br)cc2C1 (centres unmarked) [Example 52, 2-{6-[1-Ethyl-3-(4-trifluoromethoxyphenyl)ureido]-3-bromo-5,6,7,8-tetrahydronaphthalen-2-ylsulfanyl}-2-methylpropionic acid] | – | 17 nM | – | – | > 3000 nM |
| CCN(C(=O)Nc1ccc(OC(F)(F)F)cc1)C1CCc2cc(SC(C)(C)C(=O)O)c(C)cc2C1 (centres unmarked) [Example 53, 2-{6-[1-Ethyl-3-(4-trifluoromethoxyphenyl)ureido]-3-methyl-5,6,7,8-tetrahydronaphthalen-2-ylsulfanyl}-2-methylpropionic acid] | – | 42 nM | – | – | 873 nM |
| CCN(C(=O)Nc1ccc(OC(F)(F)F)cc1)C1CCc2cc(SC(C)(C)C(=O)O)c(OC(F)(F)F)cc2C1 (centres unmarked) [Example 54, 2-{6-[1-Ethyl-3-(4-trifluoromethoxyphenyl)ureido]-3-trifluoromethoxy-5,6,7,8-tetrahydronaphthalen-2-ylsulfanyl}-2-methylpropionic acid] | – | 131 nM | – | – | > 3000 nM |
| CCN(C(=O)Nc1ccc(OC(F)(F)F)cc1)C1CCc2cc(SC(C)(C)C(=O)O)c(-c3ccccc3)cc2C1 (centres unmarked) [Example 55, 2-{6-[1-Ethyl-3-(4-trifluoromethoxyphenyl)ureido]-3-phenyl-5,6,7,8-tetrahydronaphthalen-2-ylsulfanyl}-2-methylpropionic acid] | – | 545 nM | – | – | 1720 nM |
